{"source": "ChEMBL document CHEMBL1201862", "about": "“PubChem BioAssay data set” (2004)", "test_in_all_cases": "NCI-60 cell line screen, 48 h", "key": {"ACHN": {"system": "ACHN"}, "SF-295": {"system": "SF-295"}, "SK-MEL-5": {"system": "SK-MEL-5"}, "T47D": {"system": "T47D"}, "UO-31": {"system": "UO-31"}, "HOP-62": {"system": "HOP-62"}, "OVCAR-4": {"system": "OVCAR-4"}, "MOLT-4": {"system": "MOLT-4"}, "OVCAR-5": {"system": "OVCAR-5"}, "U-251": {"system": "U-251"}, "NCI/ADR-RES": {"system": "NCI/ADR-RES"}, "BT-549": {"system": "BT-549"}, "SF-539": {"system": "SF-539"}, "OVCAR-3": {"system": "OVCAR-3"}, "NCI-H522": {"system": "NCI-H522"}, "UACC-62": {"system": "UACC-62"}, "EKVX": {"system": "EKVX"}, "SK-MEL-28": {"system": "SK-MEL-28"}, "SW-620": {"system": "SW-620"}, "SF-268": {"system": "SF-268"}}, "note": "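Test compounds were applied to cells in 96-well plates for 48 hours at 5 doses. Here, GI50 denotes the concentration required for 50% inhibition of growth.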 Calls of active or inactive are those of the source. Rule as the data show it: active = GI50 up to about 1.1 µM and inactive = higher."}
{"smiles": "O=C(O)c1c2c(cc3c1CC1(Cc4ccccc4C1=O)C3)CCC2", "note": "(stereo not given)", "values": [{"measurement": "GI50", "setting": "ACHN", "result": "57 µM (inactive)"}, {"measurement": "GI50", "setting": "SF-295", "result": "38.6 µM (inactive)"}, {"measurement": "GI50", "setting": "SK-MEL-5", "result": "19.6 µM (inactive)"}, {"measurement": "GI50", "setting": "T47D", "result": "32.5 µM (inactive)"}, {"measurement": "GI50", "setting": "UO-31", "result": "38 µM (inactive)"}, {"measurement": "GI50", "setting": "HOP-62", "result": "64.7 µM (inactive)"}, {"measurement": "GI50", "setting": "OVCAR-4", "result": "27.8 µM (inactive)"}, {"measurement": "GI50", "setting": "MOLT-4", "result": "11.4 µM (inactive)"}, {"measurement": "GI50", "setting": "OVCAR-5", "result": "65.5 µM (inactive)"}, {"measurement": "GI50", "setting": "U-251", "result": "29 µM (inactive)"}, {"measurement": "GI50", "setting": "NCI/ADR-RES", "result": "28.7 µM (inactive)"}, {"measurement": "GI50", "setting": "BT-549", "result": "33 µM (inactive)"}, {"measurement": "GI50", "setting": "SF-539", "result": "29.7 µM (inactive)"}, {"measurement": "GI50", "setting": "OVCAR-3", "result": "26.1 µM (inactive)"}, {"measurement": "GI50", "setting": "NCI-H522", "result": "22.1 µM (inactive)"}, {"measurement": "GI50", "setting": "UACC-62", "result": "21.8 µM (inactive)"}, {"measurement": "GI50", "setting": "EKVX", "result": "33.9 µM (inactive)"}, {"measurement": "GI50", "setting": "SK-MEL-28", "result": "52 µM (inactive)"}, {"measurement": "GI50", "setting": "SW-620", "result": "30.1 µM (inactive)"}, {"measurement": "GI50", "setting": "SF-268", "result": "59.4 µM (inactive)"}]}
{"smiles": "CN(C)c1ccc(/C=C(\\NC(=O)c2ccccc2)C(=O)NC(CC(=O)O)C(=O)O)cc1", "note": "(stereo not given)", "values": [{"measurement": "GI50", "setting": "ACHN", "result": "> 100 µM (inactive)"}, {"measurement": "GI50", "setting": "SF-295", "result": "> 100 µM (inactive)"}, {"measurement": "GI50", "setting": "SK-MEL-5", "result": "94.6 µM (inactive)"}, {"measurement": "GI50", "setting": "T47D", "result": "> 100 µM (inactive)"}, {"measurement": "GI50", "setting": "UO-31", "result": "> 100 µM (inactive)"}, {"measurement": "GI50", "setting": "HOP-62", "result": "22.9 µM (inactive)"}, {"measurement": "GI50", "setting": "OVCAR-4", "result": "53.2 µM (inactive)"}, {"measurement": "GI50", "setting": "MOLT-4", "result": "> 100 µM (inactive)"}, {"measurement": "GI50", "setting": "OVCAR-5", "result": "> 100 µM (inactive)"}, {"measurement": "GI50", "setting": "U-251", "result": "> 100 µM (inactive)"}, {"measurement": "GI50", "setting": "NCI/ADR-RES", "result": "43.7 µM (inactive)"}, {"measurement": "GI50", "setting": "BT-549", "result": "> 100 µM (inactive)"}, {"measurement": "GI50", "setting": "SF-539", "result": "> 100 µM (inactive)"}, {"measurement": "GI50", "setting": "OVCAR-3", "result": "52.7 µM (inactive)"}, {"measurement": "GI50", "setting": "NCI-H522", "result": "17.7 µM (inactive)"}, {"measurement": "GI50", "setting": "UACC-62", "result": "82 µM (inactive)"}, {"measurement": "GI50", "setting": "EKVX", "result": "> 100 µM (inactive)"}, {"measurement": "GI50", "setting": "SK-MEL-28", "result": "> 100 µM (inactive)"}, {"measurement": "GI50", "setting": "SW-620", "result": "> 100 µM (inactive)"}, {"measurement": "GI50", "setting": "SF-268", "result": "61.4 µM (inactive)"}]}
{"smiles": "CCCCCC/C=C\\CCCCCCCCCc1cccc(O)c1C(=O)O", "note": "[GINKGOLIC ACID 17:1]", "values": [{"measurement": "GI50", "setting": "ACHN", "result": "> 100 µM (inactive)"}, {"measurement": "GI50", "setting": "SF-295", "result": "59.3 µM (inactive)"}, {"measurement": "GI50", "setting": "SK-MEL-5", "result": "35.5 µM (inactive)"}, {"measurement": "GI50", "setting": "T47D", "result": "> 100 µM (inactive)"}, {"measurement": "GI50", "setting": "UO-31", "result": "> 100 µM (inactive)"}, {"measurement": "GI50", "setting": "HOP-62", "result": "> 100 µM (inactive)"}, {"measurement": "GI50", "setting": "OVCAR-4", "result": "> 100 µM (inactive)"}, {"measurement": "GI50", "setting": "MOLT-4", "result": "83.8 µM (inactive)"}, {"measurement": "GI50", "setting": "OVCAR-5", "result": "> 100 µM (inactive)"}, {"measurement": "GI50", "setting": "U-251", "result": "> 100 µM (inactive)"}, {"measurement": "GI50", "setting": "NCI/ADR-RES", "result": "> 100 µM (inactive)"}, {"measurement": "GI50", "setting": "BT-549", "result": "> 100 µM (inactive)"}, {"measurement": "GI50", "setting": "SF-539", "result": "> 100 µM (inactive)"}, {"measurement": "GI50", "setting": "OVCAR-3", "result": "> 100 µM (inactive)"}, {"measurement": "GI50", "setting": "NCI-H522", "result": "> 100 µM (inactive)"}, {"measurement": "GI50", "setting": "UACC-62", "result": "34 µM (inactive)"}, {"measurement": "GI50", "setting": "EKVX", "result": "> 100 µM (inactive)"}, {"measurement": "GI50", "setting": "SK-MEL-28", "result": "> 100 µM (inactive)"}, {"measurement": "GI50", "setting": "SW-620", "result": "> 100 µM (inactive)"}, {"measurement": "GI50", "setting": "SF-268", "result": "> 100 µM (inactive)"}]}
{"smiles": "O=[N+]([O-])C(=C(Cl)Cl)C(Cl)=C(Cl)Cl", "values": [{"measurement": "GI50", "setting": "ACHN", "result": "0.635 µM (active)"}, {"measurement": "GI50", "setting": "SF-295", "result": "3.06 µM (inactive)"}, {"measurement": "GI50", "setting": "SK-MEL-5", "result": "0.52 µM (active)"}, {"measurement": "GI50", "setting": "T47D", "result": "0.037 µM (active)"}, {"measurement": "GI50", "setting": "UO-31", "result": "0.836 µM (active)"}, {"measurement": "GI50", "setting": "HOP-62", "result": "8.22 µM (inactive)"}, {"measurement": "GI50", "setting": "OVCAR-4", "result": "0.0847 µM (active)"}, {"measurement": "GI50", "setting": "MOLT-4", "result": "0.0166 µM (active)"}, {"measurement": "GI50", "setting": "OVCAR-5", "result": "2.02 µM (inactive)"}, {"measurement": "GI50", "setting": "U-251", "result": "2.81 µM (inactive)"}, {"measurement": "GI50", "setting": "NCI/ADR-RES", "result": "1.36 µM (inactive)"}, {"measurement": "GI50", "setting": "BT-549", "result": "0.124 µM (active)"}, {"measurement": "GI50", "setting": "SF-539", "result": "1.45 µM (inactive)"}, {"measurement": "GI50", "setting": "OVCAR-3", "result": "0.706 µM (active)"}, {"measurement": "GI50", "setting": "NCI-H522", "result": "< 0.01 µM (active)"}, {"measurement": "GI50", "setting": "UACC-62", "result": "0.433 µM (active)"}, {"measurement": "GI50", "setting": "EKVX", "result": "3.65 µM (inactive)"}, {"measurement": "GI50", "setting": "SK-MEL-28", "result": "0.105 µM (active)"}, {"measurement": "GI50", "setting": "SW-620", "result": "0.0169 µM (active)"}, {"measurement": "GI50", "setting": "SF-268", "result": "0.701 µM (active)"}]}
